Experimental data as given in ChEMBL document CHEMBL1141452, “Advances in development of dopaminergic aporphinoids” (J Med Chem, 2007).

Tests used:
[1] = molecular target: 5-hydroxytryptamine receptor 7 (Homo sapiens, UniProt P34969); experiment: Binding affinity at 5HT7 receptor
D(2) dopamine receptor = D(2) dopamine receptor (Rattus norvegicus, UniProt P61169); experiment: Displacement of [3H]raclopride from rat dopamine D2 receptor
[2] = molecular target: T1, 5-hydroxytryptamine receptor 1A (Rattus norvegicus, UniProt P19327); experiment: Displacement of [3H]8-OH-DPAT from rat 5HT1A receptor
T1 sequence (P19327 whole entry): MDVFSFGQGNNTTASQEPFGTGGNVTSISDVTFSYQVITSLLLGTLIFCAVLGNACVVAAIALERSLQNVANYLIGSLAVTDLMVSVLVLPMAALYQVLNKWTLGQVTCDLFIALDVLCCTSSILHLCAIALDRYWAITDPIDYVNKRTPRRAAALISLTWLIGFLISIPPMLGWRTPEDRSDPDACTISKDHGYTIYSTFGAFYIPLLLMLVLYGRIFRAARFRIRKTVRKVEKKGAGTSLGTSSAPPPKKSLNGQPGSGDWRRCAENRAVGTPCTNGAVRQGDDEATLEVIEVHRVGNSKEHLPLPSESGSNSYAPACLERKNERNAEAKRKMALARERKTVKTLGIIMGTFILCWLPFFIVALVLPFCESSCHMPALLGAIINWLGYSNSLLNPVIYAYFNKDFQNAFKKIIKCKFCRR

[3] = molecular target: 5-hydroxytryptamine receptor 7 (Rattus norvegicus) (UniProt P32305); experiment: Displacement of [3H]5-HT from rat 5-HT7 receptor
Sequence of 5-hydroxytryptamine receptor 7 (Rattus norvegicus) (P32305 whole entry, looked up): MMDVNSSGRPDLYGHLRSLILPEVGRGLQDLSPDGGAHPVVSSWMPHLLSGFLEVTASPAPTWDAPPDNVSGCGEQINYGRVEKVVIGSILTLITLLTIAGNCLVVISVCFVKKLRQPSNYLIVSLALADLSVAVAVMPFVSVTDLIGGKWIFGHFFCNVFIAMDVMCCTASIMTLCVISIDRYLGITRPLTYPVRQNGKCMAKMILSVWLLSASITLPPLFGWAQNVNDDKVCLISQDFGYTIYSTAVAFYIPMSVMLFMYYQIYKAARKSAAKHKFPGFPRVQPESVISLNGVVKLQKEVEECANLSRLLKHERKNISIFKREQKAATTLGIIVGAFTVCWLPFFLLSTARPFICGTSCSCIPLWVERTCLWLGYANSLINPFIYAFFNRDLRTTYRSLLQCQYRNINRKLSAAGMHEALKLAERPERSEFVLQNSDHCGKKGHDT

[4] = Inhibition of rat midbrain dopaminergic neuron firing; assay type: functional; conditions: read-out: ID50 (the source's name)
Tyrosine 3-monooxygenase = Tyrosine 3-monooxygenase (Homo sapiens, UniProt P07101); experiment: Inhibition of tyrosine hydroxylase
Sequence of Tyrosine 3-monooxygenase (P07101 whole entry): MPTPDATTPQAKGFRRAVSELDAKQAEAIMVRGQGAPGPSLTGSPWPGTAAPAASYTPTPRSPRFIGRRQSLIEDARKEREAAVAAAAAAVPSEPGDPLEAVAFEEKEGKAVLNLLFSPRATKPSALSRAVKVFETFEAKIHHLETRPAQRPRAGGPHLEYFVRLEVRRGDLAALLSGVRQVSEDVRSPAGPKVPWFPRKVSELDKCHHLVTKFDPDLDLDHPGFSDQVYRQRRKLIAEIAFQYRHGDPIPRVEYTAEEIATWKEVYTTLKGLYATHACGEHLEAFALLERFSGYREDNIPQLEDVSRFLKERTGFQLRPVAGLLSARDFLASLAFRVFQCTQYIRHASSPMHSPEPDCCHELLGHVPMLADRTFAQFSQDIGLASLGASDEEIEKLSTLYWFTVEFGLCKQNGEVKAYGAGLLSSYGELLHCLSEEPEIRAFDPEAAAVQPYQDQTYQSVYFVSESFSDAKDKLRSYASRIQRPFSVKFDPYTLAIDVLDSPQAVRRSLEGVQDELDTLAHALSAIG

[5] = molecular target: Tyrosine 3-monooxygenase (Rattus norvegicus) (UniProt P04177); experiment: Inhibition of tyrosine hydroxylase
Sequence of Tyrosine 3-monooxygenase (Rattus norvegicus) (P04177 whole entry, looked up): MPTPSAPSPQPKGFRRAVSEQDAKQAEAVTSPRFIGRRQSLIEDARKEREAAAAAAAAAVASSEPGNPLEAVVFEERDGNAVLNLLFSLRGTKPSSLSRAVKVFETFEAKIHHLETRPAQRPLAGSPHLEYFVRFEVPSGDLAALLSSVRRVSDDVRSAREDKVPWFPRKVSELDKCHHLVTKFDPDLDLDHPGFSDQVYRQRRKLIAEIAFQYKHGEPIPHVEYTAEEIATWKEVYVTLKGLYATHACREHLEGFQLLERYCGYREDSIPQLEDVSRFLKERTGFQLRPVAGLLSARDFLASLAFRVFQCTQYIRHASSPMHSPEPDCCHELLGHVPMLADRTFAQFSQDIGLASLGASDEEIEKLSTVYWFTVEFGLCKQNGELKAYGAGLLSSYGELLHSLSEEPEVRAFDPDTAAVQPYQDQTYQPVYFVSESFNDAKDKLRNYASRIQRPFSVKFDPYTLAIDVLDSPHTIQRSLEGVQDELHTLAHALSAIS

PC-12 = experiment: Reduction of dopamine level in catecholamine-inducing rat PC12 cells; assay type: functional, cell-based
Rattus norvegicus [6] = experiment: Displacement of [3H]SCH-23390 from rat dopamine D1 receptor at 40 mg/kg, ip; assay type: functional; conditions: route intraperitoneal
Rattus norvegicus [7] = experiment: Inhibition of apomorphine-induced yawning in rat at 40 mg/kg, ip; assay type: functional; design: scale not given: the % may be the effect or the level left; conditions: route intraperitoneal
Rattus norvegicus [8] = experiment: Inhibition of apomorphine-induced penile erection in rat at 40 mg/kg, ip; assay type: functional; design: scale not given: the % may be the effect or the level left; conditions: route intraperitoneal
Rattus norvegicus [9] = experiment: Displacement of [3H]raclopride from rat dopamine D2 receptor at 40 mg/kg, ip; assay type: functional; conditions: route intraperitoneal
D(1A) dopamine receptor = D(1A) dopamine receptor (Rattus norvegicus, UniProt P18901); experiment: Displacement of [3H]SCH-23390 from rat dopamine D1 receptor
Sequence of D(1A) dopamine receptor (P18901 whole entry): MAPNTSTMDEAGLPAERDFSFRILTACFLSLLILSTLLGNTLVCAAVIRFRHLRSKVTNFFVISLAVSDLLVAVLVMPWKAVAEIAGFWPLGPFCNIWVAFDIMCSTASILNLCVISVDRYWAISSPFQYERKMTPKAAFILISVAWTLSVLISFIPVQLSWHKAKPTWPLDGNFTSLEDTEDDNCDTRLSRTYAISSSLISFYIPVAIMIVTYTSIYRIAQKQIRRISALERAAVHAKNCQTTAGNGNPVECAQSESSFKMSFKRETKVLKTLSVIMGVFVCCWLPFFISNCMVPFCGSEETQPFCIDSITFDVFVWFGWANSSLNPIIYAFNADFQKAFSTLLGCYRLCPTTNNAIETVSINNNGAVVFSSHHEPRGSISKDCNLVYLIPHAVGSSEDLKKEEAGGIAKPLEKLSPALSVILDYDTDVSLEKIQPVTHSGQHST

Cerebrum = experiment: Inhibition of lipid peroxidation in rat cerebrum; assay type: functional, tissue-based
[10] = molecular target: Sodium-dependent dopamine transporter (Rattus norvegicus, UniProt P23977); experiment: Displacement of [3H]DA from rat DAT
Sequence of Sodium-dependent dopamine transporter (P23977 whole entry): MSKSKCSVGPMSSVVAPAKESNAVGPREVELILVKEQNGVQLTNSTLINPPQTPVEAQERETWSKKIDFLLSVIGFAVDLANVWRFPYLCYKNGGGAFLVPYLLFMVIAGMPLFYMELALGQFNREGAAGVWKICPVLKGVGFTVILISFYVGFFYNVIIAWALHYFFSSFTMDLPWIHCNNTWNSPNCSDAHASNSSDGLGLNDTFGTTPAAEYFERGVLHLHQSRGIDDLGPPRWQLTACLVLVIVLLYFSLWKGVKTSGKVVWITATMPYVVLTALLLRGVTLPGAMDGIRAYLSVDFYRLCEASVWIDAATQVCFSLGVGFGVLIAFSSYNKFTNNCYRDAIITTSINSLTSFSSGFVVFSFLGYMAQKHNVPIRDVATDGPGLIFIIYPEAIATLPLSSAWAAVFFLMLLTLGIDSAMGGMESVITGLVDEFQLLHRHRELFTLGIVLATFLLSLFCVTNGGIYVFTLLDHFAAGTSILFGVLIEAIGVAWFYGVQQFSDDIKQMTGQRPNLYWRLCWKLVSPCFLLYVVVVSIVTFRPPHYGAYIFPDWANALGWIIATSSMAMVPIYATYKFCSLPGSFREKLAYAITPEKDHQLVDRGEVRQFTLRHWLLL

Sequence of D(2) dopamine receptor (P61169 whole entry): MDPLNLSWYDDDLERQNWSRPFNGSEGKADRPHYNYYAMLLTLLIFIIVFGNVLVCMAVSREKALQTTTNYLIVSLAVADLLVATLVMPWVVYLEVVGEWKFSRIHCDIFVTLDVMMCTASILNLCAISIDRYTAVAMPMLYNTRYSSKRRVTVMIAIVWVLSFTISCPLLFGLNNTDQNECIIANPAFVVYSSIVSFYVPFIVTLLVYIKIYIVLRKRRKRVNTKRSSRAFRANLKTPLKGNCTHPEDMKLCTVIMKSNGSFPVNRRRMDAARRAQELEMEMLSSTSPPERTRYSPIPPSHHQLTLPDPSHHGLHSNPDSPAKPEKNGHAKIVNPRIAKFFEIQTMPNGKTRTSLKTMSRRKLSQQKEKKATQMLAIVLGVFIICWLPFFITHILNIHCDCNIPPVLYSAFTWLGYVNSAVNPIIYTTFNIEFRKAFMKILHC
Sequence of 5-hydroxytryptamine receptor 7 (P34969 whole entry): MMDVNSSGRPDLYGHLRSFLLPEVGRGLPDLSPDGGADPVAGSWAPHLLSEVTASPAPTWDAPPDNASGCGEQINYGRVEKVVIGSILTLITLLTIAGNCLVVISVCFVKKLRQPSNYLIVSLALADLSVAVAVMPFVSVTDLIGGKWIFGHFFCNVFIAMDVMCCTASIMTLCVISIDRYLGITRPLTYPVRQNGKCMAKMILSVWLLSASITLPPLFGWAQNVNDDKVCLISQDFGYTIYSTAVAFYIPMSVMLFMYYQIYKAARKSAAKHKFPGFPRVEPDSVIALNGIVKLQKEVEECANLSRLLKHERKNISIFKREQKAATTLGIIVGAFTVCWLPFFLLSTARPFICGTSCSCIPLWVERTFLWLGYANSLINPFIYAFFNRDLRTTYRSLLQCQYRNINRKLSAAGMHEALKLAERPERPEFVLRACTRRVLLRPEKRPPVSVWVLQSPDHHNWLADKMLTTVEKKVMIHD

Q: For `CN1CCc2ccc3[nH]c(=O)c4cccc5c4c3c2[C@H]1C5`, which Ki [1] is on record?
A: The Ki was 0.055 µM.

Q: What about the Ki (D(2) dopamine receptor) of the same compound?
A: Its Ki is 0.055 µM.

Q: And the Ki [2]?
A: Its Ki is 0.18 µM.

Q: What about the Ki [3] of the same compound?
A: Its Ki is 0.055 µM.

Q: What does the source list for `CCCN1CCc2cccc3c2[C@H]1Cc1cccc(O)c1-3`?
A: ED50 [4]: 0.0047 µmol/kg; IC50 (Tyrosine 3-monooxygenase): 42 µM

Q: Which IC50 (Tyrosine 3-monooxygenase) does the source give for `CCCN1CCc2cccc3c2[C@@H]1Cc1cccc(O)c1-3` here?
A: The IC50 was 87 µM.

Q: Which results are given for `CCCN1CCc2cccc3c2[C@@H]1Cc1ccc(O)c(O)c1-3`?
A: ED50 [4]: 1.6 µmol/kg; IC50 [5]: 1 µM

Q: With `COc1ccc2c(c1O)-c1c3c(cc4c1[C@H](C2)N(C)CC4)OCO3` [(S)-BULBOCAPNINE] as the compound, how does the IC50 (PC-12) read?
A: Its IC50 is 27 µM.

Q: For `CN1CCc2cccc3c2[C@H]1Cc1ccc(O)c(O)c1-3` [APOMORPHINE], which ED50 [4] is on record?
A: Its ED50 is 0.018 µmol/kg.

Q: Which results are given for `COc1cc2c(cc1O)C[C@H]1c3c(cc(O)c(OC)c3-2)CCN1C` [BOLDINE]?
A: Activity (Rattus norvegicus [6]): 25%; Activity (Rattus norvegicus [7]): 50%; Activity (Rattus norvegicus [8]): 50%

Q: Which Activity (Rattus norvegicus [6]) does the source give for `COc1cc2c(cc1OC)-c1c(OC)c(OC)cc3c1[C@H](C2)N(C)CC3` [GLAUCINE] here?
A: The Activity was 50%.

Q: And the Activity (Rattus norvegicus [9])?
A: The Activity was 50%.

Q: And the Activity (Rattus norvegicus [7])?
A: The Activity was 50%.

Q: And the Activity (Rattus norvegicus [8])?
A: The Activity was 50%.

Q: And the Ki (D(1A) dopamine receptor)?
A: The Ki was 2.9 µM.

Q: What about the Ki (D(2) dopamine receptor) of the same compound?
A: The Ki was 2.8 µM.

Q: For `CN1CCc2cc3c(c4c2C1Cc1cccc(O)c1-4)OCO3` (stereo unspecified) [PUKATEINE], which IC50 (Cerebrum) is on record?
A: The IC50 was 15 µM.

Q: And the IC50 (D(1A) dopamine receptor)?
A: Its IC50 is 0.4 µM.

Q: What about the IC50 (D(2) dopamine receptor) of the same compound?
A: The IC50 was 0.6 µM.

Q: What about the IC50 [10] of the same compound?
A: The IC50 was 46 µM.

Q: What does the source list for `CCCN1CCc2cccc3c2[C@H]1Cc1ccc(O)c(O)c1-3` [R-N-PROPYLNORAPOMORPHINE]?
A: ED50 [4]: 0.002 µmol/kg; IC50 [5]: 0.3 µM
